We go through 2 compounds from patent US9938290B2, “Tricyclic heterocyclic compounds as phosphoinositide 3-kinase inhibitors” (Karus Therapeutics Limited, priority 2009, dated 2018).

One test deals with MCF7 (Breast Tumour). In words: In vitro inhibition of tumour cell proliferation, MCF7. It is filed as cell-based.
The subject of another test is PC3 (Prostate Tumour). In words: In vitro inhibition of tumour cell proliferation, PC3. It is filed as cell-based.
For a further test, the system named is A549 (Lung Tumour). In words: In vitro inhibition of tumour cell proliferation, A549. It is filed as cell-based.
For test [1], the system named is Rheumatoid Arthritis Synovial Fibroblast (RASF). The experiment in a line: In vitro inhibition of rheumatoid arthritis synovial fibroblast (RASF) proliferation. It is filed as cell-based.
For test [2], the system named is IL-17A production in hPBMCs. The experiment in a line: Inhibition of IL-17A production from anti-CD3-stimulated hPBMCs. The class given is cell-based, human. The conditions noted are these: hPBMCs stimulated with anti-CD3. On the procedure: (§1) 2) Anti-Inflammatory Activity: Inhibition of the Production of Pro-Inflammatory Cytokines from Stimulated Human Peripheral Blood Mononuclear Cells (hPBMCs)
(§2) Compounds were tested at a concentration of 1 uM for cytokine release inhibition in hPBMCs stimulated with LPS (TNFα), PHA (IFNγ) and anti-CD3 (IL-17A, IL-17F, IL-21, IL-23): […]

Test [3] concerns IL-21 production in hPBMCs. The experiment in a line: Inhibition of IL-21 production from anti-CD3-stimulated hPBMCs. It is filed as cell-based, human. The conditions noted are these: hPBMCs stimulated with anti-CD3. On the procedure: as §1, §2
Test [4] deals with TNFα production in hPBMCs. In words: Inhibition of TNFα production from LPS-stimulated hPBMCs. The class given is cell-based, human. The conditions noted are these: hPBMCs stimulated with LPS. On the procedure:
as §1, §2

Test [5] deals with IL-23 production in hPBMCs. The experiment in a line: Inhibition of IL-23 production from anti-CD3-stimulated hPBMCs. The class given is cell-based, human. Conditions: hPBMCs stimulated with anti-CD3. On the procedure:
as §1, §2

The test system of test [6] is IL-17F production in hPBMCs. In words: Inhibition of IL-17F production from anti-CD3-stimulated hPBMCs. It is filed as cell-based, human. Conditions: hPBMCs stimulated with anti-CD3. On the procedure:
as §1, §2

In test [7] the test system is IFNγ production in hPBMCs. In words: Inhibition of IFNγ production from PHA-stimulated hPBMCs. It is filed as cell-based, human. The conditions noted are these: hPBMCs stimulated with PHA. On the procedure:
as §1, §2

The term IC50 denotes the midpoint of a concentration-inhibition curve. The low end stands for inhibition by little substance, the high end for a need for much substance. For `c1cc(-c2nc(N3CCOCC3)c3oc4ncc(CN5CCOCC5)cc4c3n2)c2cc[nH]c2c1` [K, 2-(1H-Indol-4-yl)-4-morpholin-4-yl-8-morpholin-4-ylmethyl-pyrido[3′,2′:4,5]furo[3,2-d]pyrimidine], the IC50 in the test on MCF7 (Breast Tumour) amounted to 352 nM; in the test with PC3 (Prostate Tumour), 3340 nM; in the test with A549 (Lung Tumour), 682 nM; in [1] it was 3020 nM.

Regarding “(E)-1-(4-Methyl-piperazin-1-yl)-3-[4-morpholin-4-yl-2-(1H-pyrrolo[2,3-b]pyridin-4-yl)-pyrido[3′,2′:4,5]furo[3,2-d]pyrimidin-8-yl]-propenone”, the “% Inhibition of Proinflammatory Cytokine Production at 1 uM, IL-17A” value in test [2] was 77%. In addition, the “% Inhibition of Proinflammatory Cytokine Production at 1 uM, IL-21” value in test [3] is on record as 82%. Further, in [4], the “% Inhibition of Proinflammatory Cytokine Production at 1 uM, TNFα” value was found to be 74%. In test [5], the “% Inhibition of Proinflammatory Cytokine Production at 1 uM, IL-23” value was determined as 93%. Also, the “% Inhibition of Proinflammatory Cytokine Production at 1 uM, IL-17F” value in [6] is 74%. Also, in test [7], the “% Inhibition of Proinflammatory Cytokine Production at 1 uM, IFNγ” value came out at 67%.
